# What was measured:
# Acetylcholinesterase = Acetylcholinesterase (Homo sapiens, UniProt P22303); format: functional
# [1] = molecular target: T1, Alpha-1A adrenergic receptor (Homo sapiens, UniProt P35348); format: functional, cell-based
# T1 sequence (P35348 whole entry): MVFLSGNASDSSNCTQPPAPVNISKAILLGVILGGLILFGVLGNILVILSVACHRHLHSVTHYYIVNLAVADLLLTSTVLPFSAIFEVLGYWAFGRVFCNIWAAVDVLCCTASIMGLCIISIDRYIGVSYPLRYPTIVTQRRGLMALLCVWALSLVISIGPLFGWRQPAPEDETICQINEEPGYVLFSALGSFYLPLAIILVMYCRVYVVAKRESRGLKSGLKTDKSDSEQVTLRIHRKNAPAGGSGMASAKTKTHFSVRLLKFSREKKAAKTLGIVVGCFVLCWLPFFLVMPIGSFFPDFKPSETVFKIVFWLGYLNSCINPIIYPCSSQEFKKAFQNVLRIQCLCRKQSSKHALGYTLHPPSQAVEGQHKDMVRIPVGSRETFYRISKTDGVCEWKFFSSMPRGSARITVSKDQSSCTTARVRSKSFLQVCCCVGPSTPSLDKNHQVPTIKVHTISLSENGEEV
# [2] = molecular target: T2, Alpha-2A adrenergic receptor (Homo sapiens, UniProt P08913)
# T2 sequence (P08913 whole entry): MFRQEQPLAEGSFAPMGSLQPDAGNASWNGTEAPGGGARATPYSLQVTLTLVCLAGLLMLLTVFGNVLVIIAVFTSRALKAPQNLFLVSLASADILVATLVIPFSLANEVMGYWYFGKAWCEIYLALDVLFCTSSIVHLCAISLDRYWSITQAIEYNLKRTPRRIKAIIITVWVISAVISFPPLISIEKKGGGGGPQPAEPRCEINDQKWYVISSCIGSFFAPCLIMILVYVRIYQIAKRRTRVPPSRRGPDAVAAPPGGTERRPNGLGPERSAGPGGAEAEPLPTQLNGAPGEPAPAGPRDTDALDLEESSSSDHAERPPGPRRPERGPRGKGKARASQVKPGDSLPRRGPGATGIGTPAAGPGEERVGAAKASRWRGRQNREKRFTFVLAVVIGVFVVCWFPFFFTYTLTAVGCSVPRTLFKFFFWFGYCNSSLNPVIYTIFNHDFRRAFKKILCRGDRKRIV
# [3] = molecular target: T3, Muscarinic acetylcholine receptor M2 (Homo sapiens, UniProt P08172)
# T3 sequence (P08172 whole entry): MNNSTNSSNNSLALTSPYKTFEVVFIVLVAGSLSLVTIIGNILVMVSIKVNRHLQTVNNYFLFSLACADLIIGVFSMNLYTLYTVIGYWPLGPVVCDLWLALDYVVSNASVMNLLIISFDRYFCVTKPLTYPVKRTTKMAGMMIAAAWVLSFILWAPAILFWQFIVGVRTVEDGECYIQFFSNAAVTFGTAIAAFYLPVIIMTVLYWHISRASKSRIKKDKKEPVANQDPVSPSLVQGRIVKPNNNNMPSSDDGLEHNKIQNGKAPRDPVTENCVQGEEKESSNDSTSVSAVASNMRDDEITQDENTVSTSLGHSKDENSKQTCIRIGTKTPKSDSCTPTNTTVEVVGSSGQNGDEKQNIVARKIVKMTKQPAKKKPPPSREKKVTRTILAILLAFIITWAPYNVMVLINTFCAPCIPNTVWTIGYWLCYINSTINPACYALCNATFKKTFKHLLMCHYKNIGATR
# D(1A) dopamine receptor = D(1A) dopamine receptor (Homo sapiens, UniProt P21728)
# Prothrombin = Prothrombin (Homo sapiens, UniProt P00734); format: functional
# Histamine H3 receptor = Histamine H3 receptor (Homo sapiens, UniProt Q9Y5N1)
# [4] = molecular target: 5-hydroxytryptamine receptor 2B (Homo sapiens, UniProt P41595); format: functional, cell-based
# [5] = molecular target: Voltage-gated inwardly rectifying potassium channel KCNH2 (Homo sapiens, UniProt Q12809); format: functional
# Mu-type opioid receptor = Mu-type opioid receptor (Homo sapiens, UniProt P35372)
# [6] = molecular target: cGMP-inhibited 3',5'-cyclic phosphodiesterase 3A (Homo sapiens, UniProt Q14432); format: functional
# [7] = molecular target: 3',5'-cyclic-AMP phosphodiesterase 4A (Homo sapiens, UniProt P27815); format: functional
# Progesterone receptor = molecular target: T4, Progesterone receptor (Homo sapiens, UniProt P06401)
# T4 sequence (P06401 whole entry): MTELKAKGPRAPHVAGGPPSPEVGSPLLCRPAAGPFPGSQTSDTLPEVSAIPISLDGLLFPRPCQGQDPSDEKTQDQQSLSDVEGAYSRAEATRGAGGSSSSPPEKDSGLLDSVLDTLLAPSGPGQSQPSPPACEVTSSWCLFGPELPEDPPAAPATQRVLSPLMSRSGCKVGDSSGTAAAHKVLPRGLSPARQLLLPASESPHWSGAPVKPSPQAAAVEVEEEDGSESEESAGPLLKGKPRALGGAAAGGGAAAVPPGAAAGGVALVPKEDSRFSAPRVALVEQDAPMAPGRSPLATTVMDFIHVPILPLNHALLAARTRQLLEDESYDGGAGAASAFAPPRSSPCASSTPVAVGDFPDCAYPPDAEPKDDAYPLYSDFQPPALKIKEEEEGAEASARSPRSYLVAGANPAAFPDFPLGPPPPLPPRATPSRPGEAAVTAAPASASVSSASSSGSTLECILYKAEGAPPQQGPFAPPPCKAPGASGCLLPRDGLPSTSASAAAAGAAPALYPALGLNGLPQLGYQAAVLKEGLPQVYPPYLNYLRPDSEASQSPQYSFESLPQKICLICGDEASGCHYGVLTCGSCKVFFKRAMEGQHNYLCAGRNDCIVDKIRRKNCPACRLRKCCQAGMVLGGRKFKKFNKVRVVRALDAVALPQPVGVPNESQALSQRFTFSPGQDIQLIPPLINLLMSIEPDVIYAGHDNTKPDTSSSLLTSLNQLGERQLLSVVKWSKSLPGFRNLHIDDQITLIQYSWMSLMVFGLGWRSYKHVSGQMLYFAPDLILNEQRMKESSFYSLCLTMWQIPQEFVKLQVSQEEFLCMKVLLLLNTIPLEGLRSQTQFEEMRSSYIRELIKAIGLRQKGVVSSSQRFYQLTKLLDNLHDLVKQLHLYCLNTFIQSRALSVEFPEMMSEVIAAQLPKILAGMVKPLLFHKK
# [8] = molecular target: Prostaglandin G/H synthase 1 (Homo sapiens, UniProt P23219); format: functional
# [9] = molecular target: Sodium-dependent dopamine transporter (Homo sapiens, UniProt Q01959)
# Also: assay procedure not described here.
# Chain of D(1A) dopamine receptor (P21728 whole entry): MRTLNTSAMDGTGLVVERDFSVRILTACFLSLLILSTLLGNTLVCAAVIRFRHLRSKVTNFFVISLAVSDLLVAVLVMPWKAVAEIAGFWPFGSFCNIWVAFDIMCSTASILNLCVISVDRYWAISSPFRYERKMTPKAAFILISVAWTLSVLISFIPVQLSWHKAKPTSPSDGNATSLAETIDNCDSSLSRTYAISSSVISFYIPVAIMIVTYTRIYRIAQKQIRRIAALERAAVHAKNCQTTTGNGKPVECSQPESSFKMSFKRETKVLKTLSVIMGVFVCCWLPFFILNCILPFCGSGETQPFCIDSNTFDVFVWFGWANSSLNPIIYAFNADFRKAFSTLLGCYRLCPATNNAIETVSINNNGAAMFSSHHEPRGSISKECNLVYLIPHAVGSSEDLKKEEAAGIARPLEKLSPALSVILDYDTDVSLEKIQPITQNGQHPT
# Chain of 5-hydroxytryptamine receptor 2B (P41595 whole entry): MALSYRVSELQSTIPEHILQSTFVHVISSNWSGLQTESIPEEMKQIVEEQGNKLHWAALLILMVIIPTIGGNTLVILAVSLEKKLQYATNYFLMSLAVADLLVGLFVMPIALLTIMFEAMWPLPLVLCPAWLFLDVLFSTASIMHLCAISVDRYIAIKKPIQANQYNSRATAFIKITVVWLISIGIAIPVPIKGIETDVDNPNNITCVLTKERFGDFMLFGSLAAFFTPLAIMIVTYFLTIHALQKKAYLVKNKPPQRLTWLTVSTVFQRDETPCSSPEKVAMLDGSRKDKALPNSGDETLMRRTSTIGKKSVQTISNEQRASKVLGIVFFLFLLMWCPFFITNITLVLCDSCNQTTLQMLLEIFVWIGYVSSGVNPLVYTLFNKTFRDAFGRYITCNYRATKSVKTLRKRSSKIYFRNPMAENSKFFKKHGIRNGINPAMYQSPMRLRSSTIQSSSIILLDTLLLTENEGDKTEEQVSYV
# Chain of Prostaglandin G/H synthase 1 (P23219 whole entry): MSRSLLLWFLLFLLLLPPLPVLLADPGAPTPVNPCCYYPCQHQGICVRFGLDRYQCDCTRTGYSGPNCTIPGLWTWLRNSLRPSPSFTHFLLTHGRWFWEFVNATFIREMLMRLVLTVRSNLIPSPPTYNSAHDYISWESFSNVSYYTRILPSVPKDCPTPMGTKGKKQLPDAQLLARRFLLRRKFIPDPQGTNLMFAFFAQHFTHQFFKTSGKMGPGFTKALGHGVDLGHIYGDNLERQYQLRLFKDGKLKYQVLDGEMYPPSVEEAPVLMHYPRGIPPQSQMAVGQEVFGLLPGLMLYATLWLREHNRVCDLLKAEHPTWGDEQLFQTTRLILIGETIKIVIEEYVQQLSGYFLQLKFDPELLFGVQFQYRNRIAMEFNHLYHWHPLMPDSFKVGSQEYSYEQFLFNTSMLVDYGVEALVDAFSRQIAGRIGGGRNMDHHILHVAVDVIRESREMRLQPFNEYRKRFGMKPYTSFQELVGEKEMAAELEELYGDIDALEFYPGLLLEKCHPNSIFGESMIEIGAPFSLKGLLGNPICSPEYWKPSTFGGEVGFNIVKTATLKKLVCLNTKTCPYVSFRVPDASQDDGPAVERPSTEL
# Chain of Voltage-gated inwardly rectifying potassium channel KCNH2 (Q12809 whole entry): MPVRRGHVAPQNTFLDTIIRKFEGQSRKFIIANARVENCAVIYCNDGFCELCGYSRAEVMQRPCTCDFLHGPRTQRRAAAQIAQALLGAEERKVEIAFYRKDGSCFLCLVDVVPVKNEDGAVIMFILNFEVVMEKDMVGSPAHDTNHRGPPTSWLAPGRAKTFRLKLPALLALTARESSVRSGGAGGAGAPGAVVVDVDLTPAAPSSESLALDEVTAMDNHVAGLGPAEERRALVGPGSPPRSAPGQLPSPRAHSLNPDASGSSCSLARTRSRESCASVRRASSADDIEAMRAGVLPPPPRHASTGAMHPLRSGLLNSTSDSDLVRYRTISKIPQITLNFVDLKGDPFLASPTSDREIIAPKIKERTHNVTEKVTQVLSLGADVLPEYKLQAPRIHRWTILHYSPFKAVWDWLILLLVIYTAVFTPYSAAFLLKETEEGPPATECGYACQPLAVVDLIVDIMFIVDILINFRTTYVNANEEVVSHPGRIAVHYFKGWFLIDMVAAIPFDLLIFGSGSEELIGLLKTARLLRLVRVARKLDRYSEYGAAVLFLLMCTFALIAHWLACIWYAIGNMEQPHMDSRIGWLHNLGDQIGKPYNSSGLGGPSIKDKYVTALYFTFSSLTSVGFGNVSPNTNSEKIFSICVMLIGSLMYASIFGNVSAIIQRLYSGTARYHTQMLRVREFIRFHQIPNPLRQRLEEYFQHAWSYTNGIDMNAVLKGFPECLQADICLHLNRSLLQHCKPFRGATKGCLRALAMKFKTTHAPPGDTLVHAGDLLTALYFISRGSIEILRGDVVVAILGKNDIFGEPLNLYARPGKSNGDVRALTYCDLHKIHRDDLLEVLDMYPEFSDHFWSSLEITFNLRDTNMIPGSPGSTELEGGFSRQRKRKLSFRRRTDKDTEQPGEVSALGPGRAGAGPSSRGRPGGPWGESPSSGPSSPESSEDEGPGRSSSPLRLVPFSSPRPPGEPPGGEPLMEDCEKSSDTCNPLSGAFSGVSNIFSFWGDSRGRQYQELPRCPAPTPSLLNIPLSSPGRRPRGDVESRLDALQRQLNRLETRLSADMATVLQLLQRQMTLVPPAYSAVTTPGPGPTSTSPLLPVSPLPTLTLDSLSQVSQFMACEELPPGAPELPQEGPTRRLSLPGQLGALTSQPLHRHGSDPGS
# Chain of Acetylcholinesterase (P22303 whole entry): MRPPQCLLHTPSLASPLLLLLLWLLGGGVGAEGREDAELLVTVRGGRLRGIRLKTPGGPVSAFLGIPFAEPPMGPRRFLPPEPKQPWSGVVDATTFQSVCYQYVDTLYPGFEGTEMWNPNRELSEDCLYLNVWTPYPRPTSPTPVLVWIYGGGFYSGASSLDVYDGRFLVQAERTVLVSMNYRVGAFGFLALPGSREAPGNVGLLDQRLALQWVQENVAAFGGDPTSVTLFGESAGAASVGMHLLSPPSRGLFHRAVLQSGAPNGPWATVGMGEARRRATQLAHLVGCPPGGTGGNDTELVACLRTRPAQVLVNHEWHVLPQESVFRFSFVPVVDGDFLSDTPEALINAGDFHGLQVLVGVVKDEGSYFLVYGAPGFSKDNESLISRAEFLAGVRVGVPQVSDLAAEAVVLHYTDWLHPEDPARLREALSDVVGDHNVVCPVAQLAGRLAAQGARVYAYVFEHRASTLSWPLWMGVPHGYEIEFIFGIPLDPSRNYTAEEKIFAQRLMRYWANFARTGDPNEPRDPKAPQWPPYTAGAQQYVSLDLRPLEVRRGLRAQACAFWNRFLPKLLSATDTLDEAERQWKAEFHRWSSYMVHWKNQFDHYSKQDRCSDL
# Chain of cGMP-inhibited 3',5'-cyclic phosphodiesterase 3A (Q14432 whole entry): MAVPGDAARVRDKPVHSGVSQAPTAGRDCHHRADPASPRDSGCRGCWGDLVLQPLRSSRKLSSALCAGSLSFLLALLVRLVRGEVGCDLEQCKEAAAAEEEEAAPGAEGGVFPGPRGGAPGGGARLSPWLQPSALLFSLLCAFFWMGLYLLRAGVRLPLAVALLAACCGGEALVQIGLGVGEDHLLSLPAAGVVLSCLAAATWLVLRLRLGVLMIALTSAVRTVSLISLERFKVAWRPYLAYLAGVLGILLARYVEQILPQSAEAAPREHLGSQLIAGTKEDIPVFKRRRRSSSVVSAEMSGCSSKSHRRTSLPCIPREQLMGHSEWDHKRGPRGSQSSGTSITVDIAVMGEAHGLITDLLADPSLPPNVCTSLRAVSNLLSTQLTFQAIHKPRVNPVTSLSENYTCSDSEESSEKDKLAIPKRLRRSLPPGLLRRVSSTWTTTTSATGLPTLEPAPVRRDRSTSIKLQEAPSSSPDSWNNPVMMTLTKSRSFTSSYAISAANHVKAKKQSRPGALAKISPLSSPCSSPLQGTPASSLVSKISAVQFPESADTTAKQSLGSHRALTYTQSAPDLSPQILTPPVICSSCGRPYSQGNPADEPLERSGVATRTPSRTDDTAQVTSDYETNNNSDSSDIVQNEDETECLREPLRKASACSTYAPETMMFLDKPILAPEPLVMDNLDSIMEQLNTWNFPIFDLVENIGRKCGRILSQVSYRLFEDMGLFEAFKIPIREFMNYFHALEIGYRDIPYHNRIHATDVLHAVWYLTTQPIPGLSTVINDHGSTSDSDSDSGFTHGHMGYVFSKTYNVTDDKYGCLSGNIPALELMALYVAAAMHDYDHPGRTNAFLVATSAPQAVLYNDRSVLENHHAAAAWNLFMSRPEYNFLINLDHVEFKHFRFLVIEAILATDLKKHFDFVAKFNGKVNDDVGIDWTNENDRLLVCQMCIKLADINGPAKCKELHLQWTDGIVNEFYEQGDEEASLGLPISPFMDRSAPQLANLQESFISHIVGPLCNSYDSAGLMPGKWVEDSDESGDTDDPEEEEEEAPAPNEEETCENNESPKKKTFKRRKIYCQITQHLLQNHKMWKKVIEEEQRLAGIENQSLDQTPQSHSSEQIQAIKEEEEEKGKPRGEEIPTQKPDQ
# Chain of Sodium-dependent dopamine transporter (Q01959 whole entry): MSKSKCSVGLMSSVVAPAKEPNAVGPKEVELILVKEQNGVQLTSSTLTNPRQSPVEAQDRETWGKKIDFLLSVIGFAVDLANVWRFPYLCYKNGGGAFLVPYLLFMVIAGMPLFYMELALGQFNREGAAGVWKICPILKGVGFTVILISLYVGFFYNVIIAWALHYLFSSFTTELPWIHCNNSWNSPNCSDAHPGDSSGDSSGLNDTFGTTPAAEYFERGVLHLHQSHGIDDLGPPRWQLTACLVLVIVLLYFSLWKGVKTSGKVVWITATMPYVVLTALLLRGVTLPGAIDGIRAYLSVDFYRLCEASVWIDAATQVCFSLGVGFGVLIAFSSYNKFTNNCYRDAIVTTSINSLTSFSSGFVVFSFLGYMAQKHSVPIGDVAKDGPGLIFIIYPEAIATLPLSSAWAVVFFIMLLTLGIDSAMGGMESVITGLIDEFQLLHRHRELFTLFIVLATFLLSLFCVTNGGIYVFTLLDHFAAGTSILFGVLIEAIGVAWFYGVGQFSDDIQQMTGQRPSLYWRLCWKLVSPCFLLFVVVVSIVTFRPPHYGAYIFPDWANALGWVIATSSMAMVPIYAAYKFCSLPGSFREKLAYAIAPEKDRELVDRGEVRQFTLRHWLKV
Structure (SMILES),AC50 (Acetylcholinesterase) [µM],AC50 [1] [µM],AC50 [2] [µM],AC50 [3] [µM],AC50 (D(1A) dopamine receptor) [µM],AC50 (Prothrombin) [µM],AC50 (Histamine H3 receptor) [µM],AC50 [4] [µM],AC50 [5] [µM],AC50 (Mu-type opioid receptor) [µM],AC50 [6] [µM],AC50 [7] [µM],AC50 (Progesterone receptor) [µM],AC50 [8] [µM],AC50 [9] [µM]
CCCCC(CC)CN1CN(CC(CC)CCCC)CC(C)(N)C1 (stereo not given) [HEXETIDINE],> 30,> 30,14.4,3.18,> 30,> 30,> 10,> 30,0.75,4.86,> 30,> 30,> 30,> 30,4.6
Cc1cc(=O)oc2cc(O)ccc12 [HYMECROMONE],> 30,> 30,> 30,> 30,> 30,> 3,> 30,> 30,> 30,> 30,> 30,> 30,> 30,> 30,> 30
COc1cc(C(C)=O)ccc1OCCCN1CCC(c2noc3cc(F)ccc23)CC1 [ILOPERIDONE],15.9,> 10,0.06,2.18,0.01,> 30,> 30,> 30,0.15,4.11,> 30,> 30,> 30,> 30,5.94
COc1c2occc2c(OC)c2c(=O)cc(C)oc12 [KHELLIN],> 30,> 30,> 30,> 30,> 30,> 30,> 30,> 30,> 30,> 30,> 30,2.85,> 30,> 30,> 30
CC(C)[C@@H]1CC[C@@H](C)C[C@H]1O [LEVOMENTHOL],> 30,> 30,> 30,> 30,> 30,> 30,> 30,> 30,> 30,> 30,> 30,> 30,> 30,> 30,> 30
COC(=O)[C@@H](N)Cc1ccc(O)c(O)c1 [MELEVODOPA],> 30,> 30,20.3,> 30,> 30,> 30,> 30,> 30,> 30,> 30,> 30,> 30,> 30,> 30,> 30
C=N[C@@H](C(=O)N[C@@H]1C(=O)N2[C@@H]1SC(C)(C)[C@@H]2C(=O)O)c1ccccc1 [METAMPICILLIN],> 30,> 30,> 30,> 30,> 30,> 30,> 30,> 30,> 30,> 30,> 30,> 30,> 30,9.26,> 30
O=C(NNCS(=O)(=O)O)c1ccncc1 [METHANIAZIDE],> 30,> 30,> 30,> 30,> 30,> 30,> 30,> 30,> 30,> 30,> 30,> 30,> 30,> 30,> 30
Cc1cc(=O)[nH]c(=S)[nH]1 [METHYLTHIOURACIL],> 30,> 30,> 30,> 30,> 30,> 30,> 30,> 30,> 30,> 30,> 30,> 30,> 30,13.1,> 30
CN(C)c1ccc(O)c2c1C[C@H]1C[C@H]3[C@H](N(C)C)C(O)=C(C(N)=O)C(=O)[C@@]3(O)C(O)=C1C2=O [MINOCYCLINE],> 30,> 30,> 30,> 10,> 30,> 30,> 30,> 30,> 30,> 30,> 30,> 30,> 30,> 30,> 30
CCNC(=O)/C=C(C)/C=C/C=C(C)/C=C/c1c(C)cc(OC)c(C)c1C [MOTRETINIDE],> 30,> 30,> 30,> 30,> 30,> 30,> 30,> 30,5.7,28.4,> 30,> 30,0.932,6.95,> 10
C=CC(=O)Nc1cccc(Oc2nc(Nc3ccc(N4CCN(C)CC4)cc3)nc3ccsc23)c1 [OLMUTINIB],> 30,> 30,0.881,1.64,3.81,> 30,0.94,> 30,0.54,5.5,> 30,3.19,> 30,> 30,0.0559

# — ChEMBL document CHEMBL5291721, “A preclinical secondary pharmacology resource illuminates target-adverse drug reaction associations of marketed drugs” (Nat Commun, 2023)
